Laboratory results from patent US11236102B2, “Oxabicycloheptane prodrugs” (Lixte Biotechnology, Inc., priority 2015, dated 2022).
Several values for one entry are separate records, joined by “and”; a condition that tells them apart may be missing. Equal entries are not always repeated. Entries after “also recorded” stand apart in the source; their conditions may differ. Each block holds one molecule with its values, some of them ahead of it.

Assays:
in vivo = settings: rat, 1.4 mg/kg
Method: 113 was dissolved in 4% NaHCO3 in saline for IV administration. The detailed procedure of dosing solution preparation was presented in Appendix I.
15 animals were placed on the study. The animals in IV arm were free access to food and water. For PO dose group, the animals were fasted overnight prior to dosing and the food was resumed 4 hours postdose.
The IV injection was conducted via foot dorsal vein. PO via oral gavage.
Blood collection: The animal is restrained manually. Approximately 200 μL of blood/time point is collected into sodium heparin tube via cardiac puncture for terminal bleeding (anesthetized under carbon dioxide). Blood sample will be put on ice and centrifuged to obtain plasma sample (2000 g, 5 min under 4° C.) within 10 minutes.
Liver collection: The animal will be euthanized with carbon dioxide inhalation. Open abdominal cavity with scissor to expose internal organs. Hold the carcass in an upright position and allow the organs to fall forward. Cut the connective tissues and remove the organs. Then the organs are rinsed with cold saline, dried on filtrate paper, placed into a screw-top tube and weighed, snap frozen by placing into dry-ice immediately.
Brain collection: Make a mid-line incision in the animals scalp and retract the skin. Using small bone cutters and rongeurs, remove the skull overlying the brain. Remove the brain using a spatula and rinse with cold saline, dried on filtrate paper, placed into a screw-top tube and weighed, snap frozen by placing into dry-ice immediately. […] Plasma, brain and liver samples were stored at approximately −80° C. until analysis. The backup samples will be discarded after three weeks after in-life completion unless requested. The unused dosing solutions will be discarded within three weeks after completion of the study.
Pharmacokinetic Analysis Software: The PK parameters were determined by non-compartmental model of non-compartmental analysis tool, Pharsight Phoenix WinNonlin® 6.2 software. […] Concentration data within 80%-120% of LLOQ was considered within normal instrumental variation and presented in the results. Terminal t1/2 calculation: Time points were automatic selected by “best fit” model for terminal half life estimation as the first option. Manual selection was applied when “best fit” could not well define the terminal phase. Results

[1] = Pharmacokinetic study of 157 (iv, po) in SD rats: 157 and endothal in plasma, liver, brain; format: in vivo
Method: The blood, liver and brain tissue samples were collected at predetermined times from rats. […] Compound were diluted shortly before use in 4% sodium bicarbonate for sterile injection (this is the standard pediatric solution of NaHCO3 with a pH of about 8.5).
Compound 153 was freshly prepared by diluting the drugs shortly before use in 4% sodium bicarbonate for sterile injection (this is the standard pediatric solution of NaHCO3 with a pH of about 8.5). The final concentrations of 153 solutions were 0.25 mg/mL. The 153 solutions were administered via iv or po route at dose volume of 5 ml/kg according to the latest body weight. Compound 157 was freshly prepared by diluting the drugs shortly before use in 4% sodium bicarbonate for sterile injection (this is the standard pediatric solution of NaHCO3 with a pH of about 8.5). […] The 157 solutions were administered via iv or po route at dose volume of 5 ml/kg according to the latest body weight.
Twelve (12) female SD rats per group were dosed by iv with 153 or 157. The rats were fasted overnight prior to dosing, with free access to water. Foods were withheld for 2 hours post-dose. Blood, liver and brain tissue samples in two animals each group were collected at each time point, within 10% of the scheduled time for each time point. Two extra animals were used for analytic method development.
Blood (>0.3 mL) were collected via aorta abdominalis in anaesthetic animals into tubes containing heparin at 15 min, 1, 2, 6, 10 and 24 hours after iv administration. Liver and brain tissues were collected immediately after animal death. The liver and brain tissues were excised and rinsed with cold saline to avoid blood residual. Upon collection, each sample was placed on ice and the blood samples were subsequently centrifuged (4° C., 11000 rpm, 5 min) to separate plasma.
The obtained plasma, liver and brain tissue samples were stored at −70° C. until LC-MS/MS analysis.
Two (2) female SD rats per group were dosed by po with 153 or 157. The rats were fasted overnight prior to dosing, with free access to water. Foods were withheld for 2 hours post-dose. Blood samples (>0.3 mL) were collected via aorta abdominalis in anaesthetic animals into tubes containing heparin at 30 min, 1, 2, 6, 10 and 24 hours after po administration.
To each sample, 30 μL IS-D (for blank samples, 20 μL acetonitrile:water (1:1) was added) and 300 ul acetonitrile was added. The sample mixture was vortexed for approximately 3 min. After centrifugation at 10000 rpm for 5 min at 4° C., 100 μL of the upper layer was transferred to a new tube and added 200 μL 0.4% formic acid in water (pH6.0). The mixture was vortexed for approximately 3 min before injected onto the LC/MS/MS system for analysis.
On the day of the assay, the frozen liver and brain samples were thawed unassisted at room temperature. An about 200 mg weighed sample of each thawed tissue was placed into a plastic tube with water (0.6 mL) to facilitate homogenization. Tissue processing was conducted using a homogenizer for approximately 1 min, […] homogenate was transferred into a fresh Eppendorf tube. To each tube, 50 μL IS-D was added and mixed. Then 500 ul acetonitrile was added and the sample mixture was vortexed for approximately 3 min. After centrifugation at 10000 rpm for 5 min at 4° C., 100 μL of the upper layer was transferred to a new tube and evaporate the supernatant to dryness at 35° C. Reconstitute the residue with 200 μL of 0.4% formic acid in water (pH 6.0), and vortex for 3 min, submit for LC-MS/MS analysis.
Frozen unknown plasma samples were completely thawed at room temperature and vortexed thoroughly. With a pipette, 50 μL of plasma was transferred into a 2.0 mL Eppendorf tube. 50 μL of 0.1N HCl and 800 μL ethyl acetate were added into each sample. The sample mixture was vortexed for approximately 3 min.

[2] = Whole blood stability (half-life) and metabolite formation; format: in vitro ADME, rat, dog, monkey and human; settings: for metabolism in whole blood metabolite study: rat, dog
Method: (§1) The stability (whole blood, liver S9, SGF, SIF, and PBS buffer) and MDCK-MDR1 monolayer permeability of LB100, LB-100 Carbonate and LB-100 POM were evaluated.
(§2) Samples were analyzed by LC-MS/MS using a SCIEX QTrap 5500 mass spectrometer coupled with an Agilent 1290 HPLC Infinity series, a CTC PAL chilled autosampler, all controlled by Analyst software. After separation on a C18 reverse phase HPLC column (Acquity UPLC HSS T3, 1.8, 2.1×50 mm) using an acetonitrile-water gradient system, peaks were analyzed by mass spectrometry (MS) using […] ionization in MRM mode.
Whole Blood Stability: Experimental Conditions Experimental Procedure: The stock solution was first diluted in acetonitrile at a concentration that is 100× of the desired final concentration. It was incubated in duplicate with whole blood at 37° C. At indicated times, an aliquot was removed from each experimental and control reaction and mixed with three volumes of ice-cold Stop Solution (methanol containing propranolol as internal standard). Stopped reactions were incubated at least ten minutes at −20° C. The samples were centrifuged to remove precipitated protein, and the supernatants were analyzed by LC-MS/MS to quantitate the remaining parent and the formation of metabolites.
Data were converted to % remaining by dividing by the time zero concentration value. Data were fit to a first-order decay model to determine half-life.

[3] = Liver S9 stability and metabolite formation; format: in vitro ADME, rat, dog, monkey and human; settings: presence and absence of NADPH, cross species
Method: as §1, §2
Experimental Procedure: Test agent is incubated in duplicate with liver S9 at 37° C. The reaction contains liver S9 protein in 100 mM potassium phosphate, 2 mM NADPH, 3 mM MgCl2, pH 7.4. A control is run for each test agent omitting NADPH to detect NADPH-free degradation. At indicated times, an aliquot is removed from each experimental and control reaction and mixed with an equal volume of ice-cold Stop Solution (methanol, containing internal standard propranolol). Stopped reactions are incubated for 10 minutes at −20° C. Samples are centrifuged to remove precipitated protein, and supernatants are analyzed by LC/MS/MS to quantitate remaining parent and the formation of metabolites. Data are reported as % remaining by dividing by the time zero concentration value.

[4] = fostriecin iv daily for 5 days, phase I trials; cited from earlier work
[5] = iv 1.5 mg/kg, 0.25 hr, individual rats, 1.5 mg/kg
[6] = iv 1.5 mg/kg, 1 hr, individual rats, 1.5 mg/kg
[7] = iv 1.5 mg/kg, 2 hr, individual rats, 1.5 mg/kg
[8] = iv administration of 157 at 1.5 mg/kg
[9] = plasma, 157 1.5 mg/kg IV, individual rats, 1.5 mg/kg
[10] = plasma, 157 1.5 mg/kg PO, individual rats, 1.5 mg/kg

plasma concentration of 113 (in vivo; male, SD, po, 2 hr): 2.15 ng/mL | concentration at 2 hr (in vivo; male, SD, po, plasma concentration of 113): 2.15 ng/mL | AUC(0-t) (in vivo; male, Sprague-Dawley, iv): 155 ng·h/mL | Tmax (in vivo; male, Sprague-Dawley, iv): 15 min | AUC(0-t) (in vivo; male, Sprague-Dawley, po): 15.7 ng·h/mL | AUC(0-t) of 113 (in vivo; male, Sprague-Dawley, po): 15.7 ng·h/mL | Cmax (in vivo; male, Sprague-Dawley, po): 17.7 ng/mL | F of 113 (in vivo; male, Sprague-Dawley, po): 10.1% | Tmax (in vivo; male, Sprague-Dawley, po): 15 min | AUC(0-last) in brain (in vivo; iv): 47.5 ng·h/g | AUC(0-last) in liver (in vivo; iv): 28.1 ng·h/g
Structure (SMILES): CN1CCN(C(=O)C2C(C(=O)OCC(Cl)(Cl)Cl)[C@H]3CC[C@@H]2O3)CC1 (stereo partly shown) [Compound 113]
clinical symptoms (in vivo): No abnormal clinical symptom was observed

Structure (SMILES): CCCCCCCOC(=O)C1C2CCC(O2)C1C(=O)N1CCN(C)CC1 (stereo not shown) [Compound 157]
metabolism to endothal in vivo ([1]; 157 administered to rats): metablozied to endothal in vivo; also recorded: converted to endothal in the plasma | oral availability ([1]; 157 at 1.5 mg/kg po to SD rats): poorly orally available | 157 plasma concentration ([1]; PO 1.5 mg/kg, 0.5 hr, individual rats, 1.5 mg/kg): 5.92 ng/mL and 6.35 ng/mL | 157 plasma concentration ([1]; PO 1.5 mg/kg, 0.5 hr, mean): 6.14 ng/mL | 157 plasma concentration ([1]; PO 1.5 mg/kg, 1 hr, individual rats, 1.5 mg/kg): 1.48 ng/mL and 1.26 ng/mL | 157 plasma concentration ([1]; PO 1.5 mg/kg, 1 hr, mean): 1.37 ng/mL | 157 plasma concentration ([1]; PO 1.5 mg/kg, 2 hr, individual rats, 1.5 mg/kg): 0.303 ng/mL and 0.194 ng/mL | 157 plasma concentration ([1]; PO 1.5 mg/kg, 2 hr, mean): 0.249 ng/mL | bioavailability ([1]; female, Sprague-Dawley, rat, in vivo, 157 1.5 mg/kg PO vs IV, mean, read-out: F (bioavailability, BA)): 6.78% | 157 brain concentration ([1]; iv 1.5 mg/kg, 0.25 hr, individual rats): 60.0 ng/g | 157 liver concentration [1, 5]: 337 ng/g and 257 ng/g | 157 plasma concentration [1, 5]: 116 ng/mL and 114 ng/mL | 157 brain concentration ([1]; iv 1.5 mg/kg, 0.25 hr, mean): 60.0 ng/g | 157 liver concentration ([1]; iv 1.5 mg/kg, 0.25 hr, mean): 297 ng/g | 157 plasma concentration ([1]; iv 1.5 mg/kg, 0.25 hr, mean): 115 ng/mL | 157 brain concentration [1, 6]: 1.99 ng/g and 2.80 ng/g | 157 liver concentration [1, 6]: 29.4 ng/g and 17.6 ng/g | 157 plasma concentration [1, 6]: 2.67 ng/mL and 3.57 ng/mL | 157 brain concentration ([1]; iv 1.5 mg/kg, 1 hr, mean): 2.40 ng/g | 157 liver concentration ([1]; iv 1.5 mg/kg, 1 hr, mean): 23.5 ng/g | 157 plasma concentration ([1]; iv 1.5 mg/kg, 1 hr, mean): 3.12 ng/mL | 157 brain concentration ([1]; iv 1.5 mg/kg, 2 hr, individual rats): BLQ | 157 liver concentration [1, 7]: 6.40 ng/g and 9.72 ng/g | 157 plasma concentration [1, 7]: 0.491 ng/mL and 0.556 ng/mL | 157 liver concentration ([1]; iv 1.5 mg/kg, 2 hr, mean): 8.06 ng/g | 157 plasma concentration ([1]; iv 1.5 mg/kg, 2 hr, mean): 0.524 ng/mL | 157 liver concentration ([1]; iv 1.5 mg/kg, 10 hr, individual rats): BLQ | AUClast in brain [1, 8]: 24.6 ng·h/g | AUClast in liver [1, 8]: 152 ng·h/g | AUC [1, 9]: 47.3 ng·h/mL | AUC0-∞ [1, 9]: 47.3 ng·h/mL | Cmax [1, 9]: 116 ng/mL and 114 ng/mL | AUC ([1]; plasma, 157 1.5 mg/kg IV, mean): 47.2 ng·h/mL | AUC0-∞ ([1]; plasma, 157 1.5 mg/kg IV, mean): 47.2 ng·h/mL | AUC [1, 10]: 3 ng·h/mL | AUC0-∞ [1, 10]: 3 ng·h/mL

metabolism in whole blood metabolite study ([2]; monkey, human): metabolized to endothall and LB-100
Structure (SMILES): CCOC(=O)OCOC(=O)[C@H]1[C@@H](C(=O)N2CCN(C)CC2)[C@@H]2CC[C@H]1O2 [LB-100 Carbonate]
metabolite formation in whole blood half-life study ([2]; blood): formation of endothall and LB-100 were observed

Structure (SMILES): CN1CCN(C(=O)C2C3CCC(O3)C2C(=O)OCOC(=O)C(C)(C)C)CC1 (stereo not shown) [LB-100 POM Ester]
metabolites observed in liver S9 stability study [3]: metabolites LB-100 and endothall were observed | metabolite formation in whole blood half-life study ([2]; cross species): formation of endothall and LB-100 were observed | metabolism in whole blood metabolite study ([2]; monkey and human): metabolized to endothall and LB-100

Structure (SMILES): C[C@@](O)(/C=C/[C@H]1CC=CC(=O)O1)[C@@H](C[C@@H](O)\C=C/C=C\C=C\CO)OP(=O)(O)O [fostriecin]
dose limiting toxicity [4]: Dose limiting toxicity was not achieved | major toxicities [4]: reversible non-cumulative increases in serum creatinine and hepatic enzymes
